Reference: US20100267031A1, “Method of Screening for RAGE-Amyloid-Beta Peptide Interaction Inhibiting Materials” (priority 2007, published 2010)

System: bEND.3 cells
Test: Comparison of passage through intercellular space (standard materials, with or without mannitol)
Format: in vitro ADME, mouse
Details: wells treated with mannitol (0.8 M) vs not treated; 20 min intervals over 120 min
Procedure: The cells were seeded on the inserts of 24-well Transwell plates and cultured for 5 days as described above examples. F—Na (10 μM, Sigma, Cat No. 28803), FD4 (1 mM, Sigma, Cat No. FD4), and FD40 (25 μM, Sigma, Cat No. FD40S), all labeled with fluorescence (FITC), were used as standard materials for intercellular passage comparison. Mannitol (0.8 M), known to interfere with the formation of intercellular tight junctions, was added to some wells while other wells were not treated with mannitol. Thereafter, the standard materials were added to the wells, followed by monitoring the fluorescence intensity in the lower compartment of the Transwell plates at regular intervals of 20 min over 120 min.
F—Na, FD4 and FD40 were 376 Da, 4,000 Da and 40,000 Da in size, respectively. When tight junctions are formed, the materials which can pass between cells are limited by the sizes thereof. Thus, the standard materials may be used as positive or negative controls. For example, when tight junctions are well formed, FD40 differs in passage through intercellular spaces from F—Na and FD4 due to difference in […] size.

## O=C([O-])c1ccccc1-c1c2ccc(=O)cc-2oc2cc([O-])ccc12.[Na+].[Na+] [F—Na]
  fluorescence intensity in the lower compartment: higher intensities were detected in the wells treated with mannitol
